Data as given in patent US20070148184A1, “Survivin-derived peptides and use thereof” (priority 2003, published 2007).
“And” between values parts separate entries of the source, which are not always exact repeats. Identical values can stand only once. “Also recorded” adds a separate entry of the source. Like-named read-outs stand apart in the source and are kept apart here. Residues, ends and D or L forms follow the SMILES beside them. No end group written: not given here.

Tests used:
HLA-A3 = HLA-A3 (Homo sapiens, UniProt P04439); assay: Assembly assay, HLA-A3; format: binding; conditions: for EC50: Table 4, HLA-A3, read-out: C50
Description: (§1) The binding affinity of synthetic peptides (Invitrogen, Carlsbad, Calif., USA) to HLA-A1, -A2, A3, or -A11 molecules metabolically labeled with [^35S]-methionine was measured in the assembly assay, as described previously (12). The assay is based on peptide-mediated stabilization of empty HLA molecules released upon cell lysis, from the TAP-deficient cell lines. Stably folded HLA-molecules were immune-precipitated using the HLA class I-specific, conformation-dependent mAb W6/32, and separated by isoelectric focusing (IEF) gel electrophoresis. MHC heavy chain bands were quantified using the ImageGauge Phosphorimager program (FUJI photo film Co., Carrollton, Tex., USA). The intensity of the band is proportional to the amount of peptide-bound class I MHC complex recovered during the assay. Subsequently, the extent of stabilization of the HLA-molecule is directly related to the binding affinity of the added peptide. The peptide concentration used to analyze the recovery of the HLA-molecules was 40, 4, 0.4, 0.04 μM for HLA-A1 and HLA-A11, and 100, 10, 1, 0.1, 0.01 μM for HLA-A2 and HLA-A3. The C50 value was subsequently calculated for each peptide as the peptide concentration sufficient for half maximal stabilization.

HLA-A2 = target: T1, HLA-A2 (Homo sapiens, UniProt P04439, D140Y/D185E/D98H/E176V/E277Q/G131W/G231S/I119V/I121R/I166T/I218V/L300P/L318F/N151K/N90K/P208A/P217A/Q86G/Q94H/R138H/R169H/T345S); assay: Assembly assay for peptide binding to class I MHC, HLA-A2
T1 construct: stabilization of the class I molecules after loading of peptide to the peptide transporter deficient cell line T2; endogenous in cells; host or cells: T2 (TAP-deficient human hybrid cell line), metabolically labelled lysate
Description: This assembly assay is carried out as described previously (12,13), and it is based on stabilisation of the HLA molecule after loading of peptide to the peptide transporter deficient cell line T2. Subsequently, correctly folded stable HLA heavy chains are immunoprecipitated using conformation dependent antibodies and the peptide binding is quantitated.
Assembly assays for binding of the synthetic peptides to class I MHC molecules metabolically labeled with [35S]-methionine were carried out as described (12,13). The assembly assay is based on stabilization of the class I molecules after loading of peptide to the peptide transporter deficient cell line T2. Subsequently, correctly folded stable MHC heavy chains are immunoprecipitated using conformation-dependent antibodies. After IEF electrophoresis, gels were exposed to phosphoImager screens, and peptide binding was quantified using the Imagequant PhosphorImager program (Molecular Dynamics, Sunnyvale, Calif.).
as §1, with “Stably folded HLA-molecules were immune-precipitated using the HLA class I-specific, conformation-dependent mAb W6/32, and separated by isoelectric focusing (IEF) gel electrophoresis.” left out

[1] = tested on: peptide epitope-specific interferon-γ releasing effector cells; assay: IFN-γ ELISPOT, Example 4 (PBL or TIL from cancer patients); format: cell-based, human
Description: To extend the sensitivity of the ELISPOT assay, PBL were stimulated once in vitro prior to analysis. At day 0, PBL or crushed lymph nodes were thawed and plated as 2×10^6 cells in 2 ml/well in 24-well plates (Nunc, Roskilde, Denmark) in x-vivo medium (Bio Whittaker, Walkersville, Md.), […] heat-inactivated human serum, and 2 mM of L-glutamine in the presence of 10 μM of peptide. Two days later 20 IU/ml recombinant interleukin-2 (IL-2) (Chiron, Ratingen, Germany) was added to the cultures. The cultured cells were tested for reactivity in the ELISPOT on day 10.
The ELISPOT assay was used to quantify peptide epitope-specific interferon-γ releasing effector cells as previously described (16). Briefly, nitrocellulose bottomed 96-well plates (MultiScreen MAIP N45, Millipore, Hedehusene, Denmark) were coated with anti-IFN-γ antibody (1-D1K, Mabtech, Nacka, Sweden). The wells were washed, blocked by X-vivo medium, and the cells were added in duplicates at different cell concentrations. The peptides were then added to each well and the plates were incubated overnight. The following day, media was discarded and the wells were washed prior to addition of biotinylated secondary antibody (7-B6-1-Biotin, Mabtech). The plates were incubated for 2 hours, washed, and avidin-alkaline phosphatase conjugate (Calbiochem, Life Technologies, Inc. San Diego, Calif., USA) was added to each well. The plates were incubated at room temperature for one hour, washed, and the enzyme substrate NBT/BCIP (DakoCytomation Norden A/S, Glostrup, Denmark) was added to each well and incubated at RT for 5-10 min. Upon the emergence of dark purple spots, the reaction was terminated by washing with tap-water. The spots were counted using the ImmunoSpot® Series 2.0 Analyzer (CTL Analyzers, LLC, Cleveland, US) and the peptide specific CTL frequency could be calculated from the numbers of spot-forming cells. All assays were performed in duplicates for each peptide antigen.

[2] = Example 1, Table 1, read-out: C50 (peptide concentration for half maximal binding to HLA-A2)
[3] = Table 4, HLA-A2, 11-mers and controls, read-out: C50

CC[C@H](C)[C@H](N)C(=O)N[C@@H](CC(C)C)C(=O)N[C@@H](CCCNC(=N)N)C(=O)NCC(=O)N[C@@H](CO)C(=O)N[C@H](C(=O)N[C@@H](C)C(=O)N[C@@H](Cc1c[nH]cn1)C(=O)N[C@@H](CCCCN)C(=O)O)C(C)C [C3, reference compound]
EC50 (HLA-A3): 0.1 to 0.3 µM and 0.1 µM

CC(C)C[C@H](NC(=O)[C@H](CCCCN)NC(=O)[C@H](CC(C)C)NC(=O)[C@H](Cc1ccccc1)NC(=O)[C@H](CCC(=O)O)NC(=O)CNC(=O)[C@H](CC(C)C)NC(=O)[C@@H](NC(=O)[C@@H](N)CC(C)C)[C@@H](C)O)C(=O)O [Sur1]
EC50 (HLA-A2; [2]): > 100 µM | EC50 (HLA-A2; Example 4, read-out: C50 (half maximal recovery of HLA-A2)): > 100 µM

CC[C@H](C)[C@H](NC(=O)[C@H](C)NC(=O)[C@H](CCCNC(=N)N)NC(=O)[C@H](CCCNC(=N)N)NC(=O)[C@@H](NC(=O)[C@@H](N)CCCCN)C(C)C)C(=O)N[C@@H](CCC(=O)O)C(=O)N[C@@H](CCC(N)=O)C(=O)N[C@@H](CC(C)C)C(=O)O [Sur3]
EC50 (HLA-A2; [2]): > 100 µM

CC(C)C[C@H](NC(=O)[C@@H](N)[C@@H](C)O)C(=O)N1CCC[C@H]1C(=O)N1CCC[C@H]1C(=O)N[C@@H](C)C(=O)N[C@@H](Cc1c[nH]c2ccccc12)C(=O)N[C@@H](CCC(N)=O)C(=O)N1CCC[C@H]1C(=O)N[C@@H](CCCCN)C(=O)O [Sur5K9]
binding to HLA-A3, in words (HLA-A3): high affinity | EC50 (HLA-A3): 2 µM | ELISPOT response ([1]; HLA-A3, nine samples from melanoma patients (five PBL and four TIL)): No responses were detected

CC(C)C[C@H](NC(=O)[C@H](CCCCN)NC(=O)[C@H](CC(C)C)NC(=O)[C@@H](N)Cc1ccccc1)C(=O)N[C@@H](CC(=O)O)C(=O)N[C@@H](CCCNC(=N)N)C(=O)N[C@@H](CCC(=O)O)C(=O)N[C@@H](CCCNC(=N)N)C(=O)N[C@@H](C)C(=O)O [Sur6]
EC50 (HLA-A2; [2]): 30 µM

CC(C)C[C@H](NC(=O)[C@H](Cc1ccccc1)NC(=O)[C@@H]1CCCN1C(=O)[C@H](CCC(N)=O)NC(=O)[C@H](Cc1c[nH]c2ccccc12)NC(=O)[C@H](C)NC(=O)[C@@H]1CCCN1C(=O)[C@@H]1CCCN1C(=O)[C@H](CC(C)C)NC(=O)[C@@H](N)[C@@H](C)O)C(=O)O [Sur8]
EC50 (HLA-A2; [2]): 30 µM

CC(C)C[C@H](NC(=O)[C@H](CCCCN)NC(=O)[C@H](CC(C)C)NC(=O)[C@H](Cc1ccccc1)NC(=O)[C@H](CCC(=O)O)NC(=O)CNC(=O)[C@H](CC(C)C)NC(=O)[C@@H](NC(=O)[C@H](CC(C)C)NC(=O)[C@@H](N)CCC(=O)O)[C@@H](C)O)C(=O)O [Sur9]
EC50 (HLA-A2; [2]): 10 µM

CC(C)C[C@H](NC(=O)[C@@H](N)CC(=O)O)C(=O)N[C@@H](C)C(=O)N[C@@H](CCC(N)=O)C(=O)N[C@@H](CS)C(=O)N[C@@H](Cc1ccccc1)C(=O)N[C@@H](Cc1ccccc1)C(=O)N[C@@H](CS)C(=O)N[C@@H](CCCCN)C(=O)O [Sur53K9] (H-DLAQCFFCK-OH; N-terminus and C-terminus assumed)
binding to HLA-A3, in words (HLA-A3): no detectable effect

CC(C)C[C@H](NC(=O)[C@H](CCC(=O)O)NC(=O)[C@H](CCCCN)NC(=O)[C@H](Cc1ccccc1)NC(=O)[C@H](CS)NC(=O)[C@H](Cc1ccccc1)NC(=O)[C@H](Cc1ccccc1)NC(=O)[C@H](CS)NC(=O)[C@H](CCC(N)=O)NC(=O)[C@H](C)NC(=O)[C@@H](N)CC(C)C)C(=O)O [Sur54-64] (H-LAQCFFCFKEL-OH; N-terminus and C-terminus assumed)
C50 (half maximal recovery of HLA-A2) (HLA-A2; Example 4): did not bind

CC(C)C[C@H](NC(=O)[C@H](CCC(=O)O)NC(=O)[C@H](CCC(=O)O)NC(=O)[C@H](Cc1ccccc1)NC(=O)[C@H](CCC(N)=O)NC(=O)[C@H](CCCCN)NC(=O)[C@H](CCCCN)NC(=O)[C@@H](NC(=O)[C@H](CO)NC(=O)[C@H](CC(C)C)NC(=O)[C@@H](N)Cc1ccccc1)C(C)C)C(=O)O [Sur86-96]
patients with CTL response in PBL ([1]; HLA-A2, ten cancer patients analyzed): no responses could be detected

CC[C@H](C)[C@H](N)C(=O)N[C@@H](CC(C)C)C(=O)N[C@@H](CCCCN)C(=O)N[C@@H](CCC(=O)O)C(=O)N[C@H](C(=O)N[C@@H](CC(N)=O)C(=O)N[C@@H](CC(N)=O)C(=O)N[C@@H](CCCCN)C(=O)N[C@@H](CCCCN)C(=O)N[C@@H](CCCCN)C(=O)O)[C@@H](C)O [Sur113L2]
binding to HLA-A3, in words (HLA-A3): only bound weakly | EC50 (HLA-A3): > 100 µM

CC[C@H](C)[C@H](NC(=O)[C@@H](N)[C@@H](C)O)C(=O)N[C@@H](CCCNC(=N)N)C(=O)N[C@@H](CCCNC(=N)N)C(=O)N[C@@H](CCCCN)C(=O)N[C@@H](CC(N)=O)C(=O)N[C@@H](CC(C)C)C(=O)N[C@@H](CCCNC(=N)N)C(=O)N[C@@H](CCCCN)C(=O)O [SurEx3-A3-1]
EC50 (HLA-A3): 0.5 µM

CAFLSVKKQF [Sur 84-93]
EC50 (HLA-A3): > 100 µM

ETAKKVRRAI [Sur10]
C50 (peptide concentration for half maximal binding to HLA-A2) (HLA-A2; Example 1, Table 1): did not bind; also recorded: Not binding

FLKDHRISTF [Sur 13-22]
EC50 (HLA-A3): > 100 µM

FLKDHRISTK [Sur13K9]
binding to HLA-A3, in words (HLA-A3): no detectable effect | EC50 (HLA-A3): > 100 µM

FLKLDRERAK [Sur 101-110]
EC50 (HLA-A3): > 100 µM

IAKETNNKKK [Sur 113-122]
EC50 (HLA-A3): > 100 µM

KLDRERAKNK [Sur 103-112]
EC50 (HLA-A3): > 100 µM

KLDRERAKNKI [Sur103-113]
C50 (half maximal recovery of HLA-A2) (HLA-A2; Example 4): did not bind | EC50 (HLA-A2; [3]): > 100 µM

PTENEPDLAQ [Sur47-56]
ELISPOT response ([1]; HLA-A1, ten melanoma patients, data not shown): no peptide-specific responses were detected

PTIRRKNLRK [SurEx3-A3-2]
EC50 (HLA-A3): > 100 µM

PTLPPAWQPFL [Sur4-14]
C50 (half maximal recovery of HLA-A2) (HLA-A2; Example 4): did not bind | EC50 (HLA-A2; [3]): > 100 µM

RAIEQLAAM [Sur2]
C50 (peptide concentration for half maximal binding to HLA-A2) (HLA-A2; Example 1, Table 1): did not bind; also recorded: Not binding

RISTFKNWPF [Sur 18-27]
EC50 (HLA-A3): > 100 µM

RITREEHKK [Sur2b-A3-1]
EC50 (HLA-A3): > 100 µM

STFKNWPFL [Sur4]
C50 (peptide concentration for half maximal binding to HLA-A2) (HLA-A2; Example 1, Table 1): did not bind; also recorded: Not binding

SVKKQFEEL [Sur5]
C50 (peptide concentration for half maximal binding to HLA-A2) (HLA-A2; Example 1, Table 1): did not bind; also recorded: Not binding

SVKKQFEELTL [Sur88-98]
C50 (half maximal recovery of HLA-A2) (HLA-A2; Example 4): did not bind | EC50 (HLA-A2; [3]): > 100 µM

TAKKVRRAI [Sur7]
C50 (peptide concentration for half maximal binding to HLA-A2) (HLA-A2; Example 1, Table 1): did not bind; also recorded: Not binding

TLPPAWQPF [Sur 5-13]
EC50 (HLA-A3): > 100 µM
